Laboratory results published in US6887873B2, “Triazine derivatives and their application as antitelomerase agents” (Aventis Pharma S.A., priority 2001, dated 2005).

Columns and labels:
[1] = system: G-quadruplex of oligonucleotide GGGTTAGGGTTAGGGTTAGGG (3.5 repeats of the human telomereic motif); assay: G-quadruplex stabilizing activity, fluorescence Tm (FAM+DABCYL oligonucleotide); assay type: binding
Source text: The G-quadruplex stabilizing activity may be determined by a method using the formation of a complex with fluorescein of which the experimental protocol is described below.
All the nucleotides, modified or otherwise, were synthesized by Eurogentec SA, Seraing, Belgium. The oligonucleotide FAM+DABCYL carries the catalogue reference OL-0371-0802. It has the sequence: […] corresponding to 3.5 repeats of the human telomereic motif (strand rich in G). The fluorescein is attached to the 5′ end, the DABCYL to the 3′ end, by the chemical arms described by Eurogentec. The concentration of the samples is checked by spectrophotometry, recording the absorbance spectrum between 220 and 700 nm and using the molar extinction coefficient provided by the supplier.
All the experiments were carried out in a 10 mM sodium cacodylate buffer pH 7.6 containing 0.1 M lithium chloride (or sodium chloride). The absence of fluorescent contamination in the buffer was checked beforehand. The fluorescent oligonucleotide is added at the final concentration of 0.2 μM.
All the measurements of fluorescence were carried out on a Spex Fluorolog DM1B apparatus, using an excitation line width of 1.8 nm and an emission line width of 4.5 nm. The samples are placed in a microquartz cuvette of 0.2×1 cm. The temperature of the sample is controlled by an external water bath. The oligonucleotide alone was analysed at 20, 30, 40, 50, 60, 70 and 80° C. The emission spectra are recorded using an excitation wavelength of 470 nm. The excitation spectra are recorded using either 515 nm or 588 nm as emission wavelength. The spectra are corrected for the response of the instrument by reference curves. A high extinction (80-90%) of the fluorescence of fluorescein at room temperature is observed, in agreement with an intramolecular folding of the oligonucleotide at 20° C. in the form of a G-quadruplex, which induces juxtaposition of its 5′ and 3′ ends which are respectively linked to fluorescein and to DABCYL. This juxtaposition causes an already-described phenomenon of extinction of fluorescence which is used for “molecular beacons”.
An oligonucleotide stock solution at the strand concentration of 0.2 μM in 0.1 M LiCl, 10 mM cacodylate buffer, pH 7.6, is prepared beforehand, heated briefly at 90° C. and slowly cooled to 20° C., and then distributed in aliquots of 600 μl in the fluorescence cuvettes. 3 μl of water (for the control) or 3 μl of test product (stock at 200 μM, final concentration 1 μM) are then added and mixed. The samples are then allowed to incubate for at least 1 hour at 20° C. before each measurement. The use of longer incubation times (up to 24 hours) has no influence on the result obtained.
Each experiment allows the measurement of only one sample. The latter is first incubated at an initial temperature of 20° C., heated to 80° C. over 38 minutes, left for 5 minutes at 80° C. and then cooled to 20° C. over 62 minutes. During this time, the fluorescence is measured simultaneously at two emission wavelengths (515 nm and 588 nm) using 470 nm as excitation wavelength. A measurement is carried out every 30 seconds. The temperature of the water bath is recorded in parallel, and the fluorescence profile as a function of the temperature is reconstituted from these values. The fluorescence profiles are then normalized between 20° C. and 80° C., and the temperature for which the intensity of emission at 515 nm is the mean of those at high and low temperature is called Tm. Under these conditions, the Tm of the reference sample without addition of product is 44° C. in a lithium chloride buffer. This temperature is increased to more than 55° C. in a sodium chloride buffer. The addition of a G-quadruplex-stabilizing compound induces an increase in the Tm. This increase is judged to be significant if it is greater than 3°.

[2] = system: human telomerease (HL60 cell extract); assay: Antitelomerease activity: extension of oligonucleotide TS followed by PCR amplification, with HL60 extract; assay type: biochemical; conditions: read-out: TRAP IC50
Description: The antitelomerease biological activity is determined by the following experimental protocol:
The leukaemia line HL60 is obtained from ATCC (American Type Culture Collection, Rockville, USA). The cells are cultured in suspension in RPMI 1640 medium containing L-glutamine at 2 mM, penicillin 200 U/ml, streptomycin 200 μg/ml, gentamycin 50 μg/ml and supplemented with 10% heat-inactivated foetal calf serum.
An aliquot of 10^5 cells is centrifuged at 3000×G and the supernatant discarded. The cell pellet is resuspended by several successive pipettings in 200 μl of lysis buffer containing 0.5% CHAPS, 10 mM Tris-HCl, pH 7.5, 1 mM MgCl2, 1 mM EGTA, 5 mM β-mercaptoethanol, 0.1 mM PMSF and 10% glycerol and is stored in ice for 30 minutes. The lysate is centrifuged at 160,000×G for 20 minutes at 4° C. and 160 μl of supernatant are recovered. The proteins in the extract are assayed by the Bradford method. The extract is stored at −80° C.
The inhibition of the telomerease activity is determined by a protocol for extension of the oligonucleotide TS (^5′AATCGTTCGAGCAGAGTT^3′), in the presence of a cellular extract enriched in telomerease activity and compounds which are added at various concentrations (10, 1, 0.1 and 0.01 μM). The extension reaction is followed by a PCR amplification of the extension products with the aid of the oligonucleotides TS and CXext (^5′[…]^3′).
The reaction medium is prepared based on the following composition:
The oligonucleotides are obtained from Eurogentec (Belgium) and are stored at −20° C. at a stock concentration of 1 mg/ml in distilled water.
The reaction samples are assembled in 0.2 ml PCR tubes and one drop of paraffin oil is deposited on each of the reactions of the experiment before closing the tubes.
The reaction samples are then incubated in a Cetus 4800-type PCR apparatus under the following temperature conditions: • 15 minutes at 30° C., • 1 minute at 90° C., • followed by 30 cycles of, • 30 seconds at 94° C., • 30 seconds at 50° C., • and 1 minute 30 seconds at 72° C., • followed by a final cycle of 2 minutes at 72° C.
For each of the samples, an aliquot of 10 μl is pipetted under the oil layer and mixed with 5 μl of a loading buffer containing:
The samples are then analysed by electrophoresis on 12% acrylamide gel in a 1×TBE buffer for 1 hour at a voltage of 200 volts, with the aid of a Novex electrophoresis system.
The acrylamide gels are then dried on a sheet of Whatmann 3 mm paper at 80° C. for 1 hour.
The analysis and the quantification of the reaction products are carried out with the aid of an InstantImager apparatus (Pacard).
For each compound concentration tested, the results are expressed as percentage inhibition of the reaction and calculated from the untreated enzymatic control and from the enzyme-free sample (blank) according to the following formula: (compound value−blank value/enzymatic control value−blank value)×100.
The concentration of compound inducing a 50% inhibition of the telomerease reaction (IC50) is determined with the aid of a semilogarithmic graphical representation of the inhibition values obtained as a function of each of the compound concentrations tested.
A compound is considered to be active as an antitelomerease agent when the quantity inhibiting 50% of the telomerease reaction is in particular less than 5 μM.

Structure (SMILES) | G4 delta Tm [1] | IC50 [2]
Cc1cc(N)c2cc(Nc3nc(Nc4ccc5nc(C)cc(N)c5c4)nc(N4CCC(O)C4)n3)ccc2n1 (stereo not drawn) [Example 153] | 10 °C | 410 nM
COCC1CCCN1c1nc(Nc2ccc3nc(C)cc(N(C)C)c3c2)nc(Nc2ccc3nc(C)cc(N(C)C)c3c2)n1 (stereo not drawn) [Example 168] | 16.5 °C | 1100 nM
COC(C)CNc1nc(Nc2ccc3nc(C)cc(N)c3c2)nc(Nc2ccc3nc(C)cc(N)c3c2)n1 (stereo not drawn) [Example 156] | 14.5 °C | 1200 nM
COC(=O)NCCNc1nc(Nc2ccc3nc(C)cc(N)c3c2)nc(Nc2ccc3nc(C)cc(N)c3c2)n1 [Example 38] | 9.5 °C | 1000 nM
Cc1cc(N(C)C)c2cc(Nc3nc(Nc4ccc5nc(C)cc(N(C)C)c5c4)nc(NC(CO)C(=O)O)n3)ccc2n1 (stereo not drawn) [Example 171] | 13 °C | 490 nM
Cc1cc(N(C)C)c2cc(Nc3nc(Nc4ccc5nc(C)cc(N(C)C)c5c4)nc(N4CCC(O)C4)n3)ccc2n1 (stereo not drawn) [Example 162] | 17 °C | 1700 nM
Cc1cc(N)c2cc(Nc3nc(NCc4ccccc4)nc(Nc4ccc5nc(C)cc(N)c5c4)n3)ccc2n1 [Example 50] | 7 °C | 220 nM
Cc1cc(N)c2cc(Nc3nc(NCCCN(C)C)nc(Nc4ccc5nc(C)cc(N)c5c4)n3)ccc2n1 [Example 12] | 9.4 °C | 300 nM
Cc1cc(N)c2cc(Nc3nc(NCc4ccc(Cl)cc4)nc(Nc4ccc5nc(C)cc(N)c5c4)n3)ccc2n1 [Example 67] | 6.5 °C | 430 nM
Cc1cc(N)c2cc(Nc3nc(Nc4ccc5nc(C)cc(N)c5c4)nc(N4CCN(CCN5CCCC5)CC4)n3)ccc2n1 [Example 75] | 13.5 °C | 50 nM
COc1cccc(CNc2nc(Nc3ccc4nc(C)cc(N)c4c3)nc(Nc3ccc4nc(C)cc(N)c4c3)n2)c1 [Example 52] | 6.5 °C | 1300 nM
Cc1cc(N)c2cc(Nc3nc(Nc4ccc5nc(C)cc(N)c5c4)nc(N(C)C4CCN(Cc5ccccc5)C4)n3)ccc2n1 (stereo not drawn) [Example 65] | 12.5 °C | 1000 nM
Cc1cc(N)c2cc(Nc3nc(NCc4cccnc4)nc(Nc4ccc5nc(C)cc(N)c5c4)n3)ccc2n1 [Example 66] | 9 °C | 280 nM
COc1ccc(COc2nc(Nc3ccc4nc(C)cc(N)c4c3)nc(Nc3ccc4nc(C)cc(N)c4c3)n2)cc1 [Example 113] | 6 °C | 530 nM
Cc1cc(N)c2cc(Nc3nc(Nc4ccc5nc(C)cc(N)c5c4)nc(N4CCN(CCCN(C)C)CC4)n3)ccc2n1 [Example 64] | 12 °C | 90 nM
Cc1cc(N)c2cc(Nc3nc(Nc4ccc5nc(C)cc(N)c5c4)nc(Nc4cccc5cn[nH]c45)n3)ccc2n1 [Example 56] | 2.5 °C | 350 nM
CCN(CC)CCNc1nc(Nc2ccc3nc(C)cc(N)c3c2)nc(Nc2ccc3nc(C)cc(N)c3c2)n1 [Example 36] | 17.5 °C | 240 nM
Cc1cc(N)c2cc(Nc3nc(Nc4ccc5nc(C)cc(N)c5c4)nc(N4CCN(CCc5ccccc5)CC4)n3)ccc2n1 [Example 57] | 8 °C | 300 nM
Cc1cc(N)c2cc(Nc3nc(NCCN4CCN(Cc5ccccc5)CC4)nc(Nc4ccc5nc(C)cc(N)c5c4)n3)ccc2n1 [Example 74] | 9.5 °C | 140 nM
Cc1cc(N)c2cc(Nc3nc(NCc4ccccn4)nc(Nc4ccc5nc(C)cc(N)c5c4)n3)ccc2n1 [Example 49] | 10 °C | 1000 nM
Cc1cc(N)c2cc(Nc3nc(Nc4ccc5nc(C)cc(N)c5c4)nc(N4CCN(C)CC4)n3)ccc2n1 [Example 14] | 4.4 °C | 210 nM
Cc1cc(N(C)C)c2cc(Nc3nc(Nc4ccc5nc(C)cc(N(C)C)c5c4)nc(N4CCN(CCO)CC4)n3)ccc2n1 [Example 163] | 13 °C | 1200 nM
COCCN1CCN(c2nc(Nc3ccc4nc(C)cc(N)c4c3)nc(Nc3ccc4nc(C)cc(N)c4c3)n2)CC1 [Example 73] | 9.5 °C | 370 nM
Cc1cc(N)c2cc(Nc3nc(Nc4ccc5nc(C)cc(N)c5c4)nc(N4CCN(c5ccncc5)CC4)n3)ccc2n1 [Example 59] | 11 °C | 190 nM
Cc1cc(N)c2cc(Nc3nc(Nc4ccccc4Cl)nc(N4CCN(C)CC4)n3)ccc2n1 [Example 8] | 1.5 °C | 3200 nM
Cc1cc(N)c2cc(Nc3nc(Nc4ccc5nc(C)cc(N)c5c4)nc(N4CCCN(CCCN5CCCC5)CC4)n3)ccc2n1 [Example 76] | 19 °C | 110 nM
Cc1cc(N)c2cc(Nc3nc(Nc4ccccc4Cl)nc(NC4CCN(C)CC4)n3)ccc2n1 [Example 7] | 3.0 °C | 2400 nM
Cc1cc(N(C)C)c2cc(Nc3nc(Nc4ccc5nc(C)cc(N(C)C)c5c4)nc(N4CCC(O)CC4)n3)ccc2n1 [Example 164] | 12.5 °C | 1600 nM
Cc1cc(N(C)C)c2cc(Nc3nc(Nc4ccc5nc(C)cc(N(C)C)c5c4)nc(N4CCCC(O)C4)n3)ccc2n1 (stereo not drawn) [Example 169] | 16.5 °C | 700 nM
Cc1cc(N)c2cc(Nc3nc(NCCN(CCN(C)C)Cc4ccccc4)nc(Nc4ccc5nc(C)cc(N)c5c4)n3)ccc2n1 [Example 37] | 17.5 °C | 230 nM
